Results published in patent publication US20190255022A1, “WOUND-HEALING AGENT” (NIPPON CHEMIPHAR CO., LTD., priority 2016, published 2019).

Test system: rat pressure ulcer model
Test: Effect of compound A in rat pressure ulcer model
Assay type: in vivo
Conditions: for Number of days required for healing: 150 mg once a day until healing; for Number of days required for healing / wound area ratio: mean±standard error; for wound area ratio: 150 mg once a day
Description: The compound A was weighed in the required amount, and polyethylene glycol 400 (PEG400) was added to the compound to prepare liquids having final concentrations of the compound of 0.01, 0.1, and 1.0 w/v %. In order to prepare ointments having final concentrations of the compound of 0.005, 0.05, and 0.5 w/w %, PEG4000 melted by warming at 65° C. was added to the liquids, and the liquids were stirred until they solidified at room temperature to prepare ointments having concentrations of the compound of 0.005, 0.05, and 0.5 w/w %.
Pentobarbital sodium was intraperitoneally administered (50 mg/kg) to 8 weeks old Slc:SD rats, of which skins on the right third trochanter had been broadly depilated beforehand using an electric clipper and an electric shaver, 20 mg/kg of allobarbital was further intraperitoneally administered to anesthetize the rats, and the animals were fixed on wooden fixation plates in the prone position. Absorbent cotton was inserted between the femoral region and the fixation plate as a cushion, and a stainless steel bar (diameter 19 mm, length 50 cm) having a weight of 1.02 to 1.03 kg and attached with a rubber stopper (diameter 12 mm) was placed on the skin over the right third trochanter to give a pressure load (902.3 to 911.2 g/cm^2) for 24 hours^5). After 24 hours, the pressure load was eliminated, a 5% glucose solution was orally administered to the rats, and two days after the elimination of the pressure load, the necrotic skin was surgically removed under isoflurane anesthesia to prepare a pressure ulcer model. As for the methods of the experiments, Hidetoshi Hamamoto et al., Clinical Pharmacology and Therapy (Yakuri to Rinsho), 15:255-262, 2005, Effect of MRX-201 on Wound Healing Dermal Burns and Decubitus Ulcer in Rat was referred to.
After the preparation of the pressure ulcer model, the administration was performed once a day at a dose of 150 mg until healing was completed. The wound surface was cleaned with absorbent cotton dipped in physiological saline before the administration, and the ointment was applied to the whole wound surface with a spatula.
Wound area was measured once a day after the start of the administration of the test substance until healing was completed. By using the measured wound area, wound area ratio (%) based on the wound area before the start of the administration was calculated. The number of days of the period from the start of the administration to healing was calculated as number of days required for healing.
Homoscedasticity was examined by the Bartlett's method. When homoscedastic results were obtained, one-way layout analysis of variance was further performed, and when significant results were obtained, mean values were compared by the Tukey's method. When heteroscedastic results were obtained, Kruskal-Wallis H-test was performed, and when significant results were obtained, mean ranks were compared by the Tukey's method. For the Bartlett's method, one-way analysis of variance, and Kruskal-Wallis H-test, the statistical significance level was set at 5%, and for the Tukey's method, the statistical significance level was set at 5% and 1%.

`Cc1cc2c(CCc3sc(-c4ccc(C(F)(F)F)cc4)nc3C(C)C)noc2cc1OCC(=O)O` [compound A, [3-[2-[4-isopropyl-2-(4-trifluoromethyl)phenyl-5-thiazolyl]ethyl]-5-methyl-1,2-benzisoxazol-6-yl]oxyacetic acid] was tested, and the “number of the days required for healing compared with the vehicle-administered group” value (0.005% and 0.05% compound A-administered groups) was “significantly decreased”, the “Number of days required for healing” value (0.005% compound A ointment, n=10) was 20.1 ± 1.4 days and the wound area ratio (0.005% compound A ointment, day 1 of administration, n=10) was 100.0 ± 0.0%. The wound area ratio (0.005% compound A ointment, day 2 of administration, n=10) was 108.3 ± 3.1%, the wound area ratio (0.005% compound A ointment, day 3 of administration, n=10) was 108.9 ± 3.9% and the wound area ratio (0.005% compound A ointment, day 4 of administration, n=10) was 99.9 ± 3.5 %. For the same compound, the wound area ratio (0.005% compound A ointment, day 5 of administration, n=10) was 92.1 ± 3.7 %, the wound area ratio (0.005% compound A ointment, day 6 of administration, n=10) was 76.4 ± 5.5 % and the wound area ratio (0.005% compound A ointment, day 7 of administration, n=10) was 66.4 ± 4.7 %. For the same compound, the wound area ratio (0.005% compound A ointment, day 8 of administration, n=10) was 55.2 ± 4.8 %, the wound area ratio (0.005% compound A ointment, day 9 of administration, n=10) was 45.3 ± 4.3 % and the wound area ratio (0.005% compound A ointment, day 10 of administration, n=10) was 39.4 ± 4.1 %. The wound area ratio (0.005% compound A ointment, day 11 of administration, n=10) was 31.5 ± 3.3 %, the wound area ratio (0.005% compound A ointment, day 12 of administration, n=10) was 23.8 ± 2.4 % and the wound area ratio (0.005% compound A ointment, day 13 of administration, n=10) was 19.6 ± 2.3 %. For the same compound, the wound area ratio (0.005% compound A ointment, day 14 of administration, n=10) was 14.4 ± 2.5 %, the wound area ratio (0.005% compound A ointment, day 15 of administration, n=10) was 10.3 ± 2.1% and the wound area ratio (0.005% compound A ointment, day 16 of administration, n=10) was 7.1 ± 1.8 %. For the same compound, the wound area ratio (0.005% compound A ointment, day 17 of administration, rats except for the healed rats) was 4.4 ± 1.5 %, the wound area ratio (0.005% compound A ointment, day 18 of administration, rats except for the healed rats) was 4.9 ± 1.6^ % and the wound area ratio (0.005% compound A ointment, day 19 of administration, rats except for the healed rats) was 3.3 ± 1.5 %. The wound area ratio (0.005% compound A ointment, day 20 of administration, rats except for the healed rats) was 2.8 ± 1.5^ %, the “wound areas compared with the vehicle-administered group” value (0.005% compound A-administered group, from the day 4 of the administration) was “significantly smaller” and the “wound areas compared with the vehicle-administered group” value (0.05% and 0.5% compound A-administered groups, from the day 5 of the administration) was “significantly smaller”. The “Number of days required for healing” value (0.05% compound A ointment, n=10) was 19.7 ± 1.1 days, the wound area ratio (0.05% compound A ointment, day 1 of administration, n=10) was 100.0 ± 0.0% and the wound area ratio (0.05% compound A ointment, day 2 of administration, n=10) was 115.0 ± 2.8%. The wound area ratio (0.05% compound A ointment, day 3 of administration, n=10) was 113.6 ± 3.5%, the wound area ratio (0.05% compound A ointment, day 4 of administration, n=10) was 104.9 ± 3.1% and the wound area ratio (0.05% compound A ointment, day 5 of administration, n=10) was 95.1 ± 3.7 %. The wound area ratio (0.05% compound A ointment, day 6 of administration, n=10) was 84.4 ± 2.8%, the wound area ratio (0.05% compound A ointment, day 7 of administration, n=10) was 73.5 ± 2.7 % and the wound area ratio (0.05% compound A ointment, day 8 of administration, n=10) was 63.4 ± 3.1 %. For the same compound, the wound area ratio (0.05% compound A ointment, day 9 of administration, n=10) was 49.8 ± 4.2 %, the wound area ratio (0.05% compound A ointment, day 10 of administration, n=10) was 41.6 ± 3.9 % and the wound area ratio (0.05% compound A ointment, day 11 of administration, n=10) was 31.2 ± 3.1 %. For the same compound, the wound area ratio (0.05% compound A ointment, day 12 of administration, n=10) was 22.3 ± 3.6 %, the wound area ratio (0.05% compound A ointment, day 13 of administration, n=10) was 16.4 ± 4.0 % and the wound area ratio (0.05% compound A ointment, day 14 of administration, n=10) was 12.1 ± 3.7 %. The wound area ratio (0.05% compound A ointment, day 15 of administration, n=10) was 8.6 ± 3.2 %, the wound area ratio (0.05% compound A ointment, day 16 of administration, n=10) was 7.5 ± 3.3 % and the wound area ratio (0.05% compound A ointment, day 17 of administration, rats except for the healed rats) was 6.7 ± 3.2 %. For the same compound, the wound area ratio (0.05% compound A ointment, day 18 of administration, rats except for the healed rats) was 7.8 ± 3.8^ %, the wound area ratio (0.05% compound A ointment, day 19 of administration, rats except for the healed rats) was 5.4 ± 2.9^ % and the wound area ratio (0.05% compound A ointment, day 20 of administration, rats except for the healed rats) was 5.4 ± 3.2^ %. The “Number of days required for healing” value (0.5% compound A ointment, n=10) was 21.0 ± 1.2 days, the wound area ratio (0.5% compound A ointment, day 1 of administration, n=10) was 100.0 ± 0.0% and the wound area ratio (0.5% compound A ointment, day 2 of administration, n=10) was 119.6 ± 5.0%. For the same compound, the wound area ratio (0.5% compound A ointment, day 3 of administration, n=10) was 117.5 ± 5.0%, the wound area ratio (0.5% compound A ointment, day 4 of administration, n=10) was 109.5 ± 4.6% and the wound area ratio (0.5% compound A ointment, day 5 of administration, n=10) was 93.2 ± 4.3 %. It also gave a wound area ratio (0.5% compound A ointment, day 6 of administration, n=10) of 84.9 ± 4.3%, a wound area ratio (0.5% compound A ointment, day 7 of administration, n=10) of 77.0 ± 5.1% and a wound area ratio (0.5% compound A ointment, day 8 of administration, n=10) of 65.3 ± 4.4%. It also gave a wound area ratio (0.5% compound A ointment, day 9 of administration, n=10) of 56.0 ± 4.0%, a wound area ratio (0.5% compound A ointment, day 10 of administration, n=10) of 49.2 ± 3.9% and a wound area ratio (0.5% compound A ointment, day 11 of administration, n=10) of 39.7 ± 4.6%. The wound area ratio (0.5% compound A ointment, day 12 of administration, n=10) was 28.3 ± 3.4%, the wound area ratio (0.5% compound A ointment, day 13 of administration, n=10) was 19.6 ± 2.2 % and the wound area ratio (0.5% compound A ointment, day 14 of administration, n=10) was 15.5 ± 1.6 %. For the same compound, the wound area ratio (0.5% compound A ointment, day 15 of administration, n=10) was 8.0 ± 0.9 %, the wound area ratio (0.5% compound A ointment, day 16 of administration, n=10) was 5.6 ± 0.7 % and the wound area ratio (0.5% compound A ointment, day 17 of administration, rats except for the healed rats) was 3.7 ± 0.5 %. The wound area ratio (0.5% compound A ointment, day 18 of administration, rats except for the healed rats) was 2.2 ± 0.6 %, the wound area ratio (0.5% compound A ointment, day 19 of administration, rats except for the healed rats) was 2.2 ± 0.6 % and the wound area ratio (0.5% compound A ointment, day 20 of administration, rats except for the healed rats) was 1.6 ± 0.4 %. The exacerbation of wounds (from the day 1 to day 3 of the administration, a tendency) was “suppressed”.
